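Five compound concentrations were applied to cells in 96-well plates for 48 hours; endpoints were derived by simple linear interpolation of the resulting dose-response curve. GI50 is the concentration that inhibits growth by half. Definition used: TGI = concentration required for complete inhibition of growth.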
Assays:
Assay in all cases: DTP human tumour cell line panel, 48 h
[1] = test system: COLO 205 colon
[2] = test system: HS 578T breast
[3] = test system: MDA-MB-435
[4] = test system: NCI/ADR-RES ovarian
[5] = test system: OVCAR-5 ovarian
[6] = test system: RXF 393 renal
[7] = test system: SF-539 CNS
[8] = test system: SK-MEL-28 melanoma
[9] = test system: SK-MEL-5 melanoma
[10] = test system: UACC-257 melanoma

SMILES	GI50 [1]	TGI [1]	GI50 [2]	TGI [2]	GI50 [3]	TGI [3]	GI50 [4]	TGI [4]	GI50 [5]	TGI [5]	GI50 [6]	TGI [6]	TGI [7]	GI50 [8]	TGI [8]	GI50 [9]	TGI [9]	GI50 [10]	TGI [10]	GI50 [7]
CCn1c2ccccc2c2cc(/C=C(/C#N)C(N)=O)ccc21	4.65 µM	> 100 µM	5.69 µM	39.7 µM	2.53 µM	18.4 µM	11.2 µM	88.1 µM	0.668 µM	3.95 µM	2.57 µM	19.3 µM	6.61 µM	40.1 µM	> 100 µM	8.5 µM	54.2 µM	4.18 µM	15.8 µM	
CC(=O)Oc1ccccc1C(=O)/C=C/c1cccc([N+](=O)[O-])c1	3.29 µM	11.5 µM	1.78 µM	8.16 µM	1.65 µM	3.55 µM	3.88 µM	18.7 µM	4.75 µM	17.1 µM	1.88 µM	3.48 µM	4.93 µM	5.56 µM	21.2 µM	3.03 µM	9.07 µM	6.99 µM	20.8 µM	2.08 µM
CCN(Cc1ccc(Cl)s1)c1ccc(CO)c(Cl)c1	1.73 µM	5.99 µM	11.7 µM	> 60.4 µM	20.3 µM	59 µM	10.4 µM	47.1 µM	0.0644 µM	0.297 µM	2.1 µM	14.6 µM	28.5 µM	11.8 µM	25.4 µM	1.9 µM	18.1 µM	0.0898 µM	0.298 µM	13 µM
Cn1cc(-c2nonc2-c2cn(C)c3ccccc23)c2ccccc21	2.54 µM	> 100 µM	0.508 µM	24.6 µM	0.228 µM	0.635 µM	0.626 µM	> 100 µM	4.51 µM	> 100 µM	0.827 µM	21.9 µM	2.19 µM	4.68 µM	> 100 µM	1.34 µM	> 100 µM	50.4 µM	> 100 µM	0.559 µM
COc1ccc(OC)c(Cn2cc3c(c2)-c2oncc2CC3)c1	3.56 µM	13.6 µM	2.25 µM	8.32 µM	0.316 µM	1.42 µM	2.01 µM	6.68 µM	6.08 µM	> 100 µM	2.67 µM	15.7 µM	7.63 µM	5.09 µM	> 100 µM	2.61 µM	8.99 µM	5.11 µM	> 82.4 µM	2.28 µM
CC(C)(C)c1ccc(C(=O)Nc2sc3c(c2C(N)=O)CCC(=O)C3)cc1	0.617 µM	1.63 µM	1.11 µM	5.33 µM	1.67 µM	3.7 µM	1.47 µM	5.53 µM	1.49 µM	3.82 µM	0.426 µM	1.94 µM	1.61 µM	1.13 µM	2.77 µM	1.53 µM	2.96 µM	1.72 µM	4.19 µM	0.438 µM
CN(CC(N)=O)C(=O)N(CCCl)N=O		> 100 µM		> 100 µM		> 100 µM		> 100 µM		> 100 µM		> 100 µM	> 100 µM		> 100 µM		> 100 µM		> 100 µM	
CC1(C)CCC[C@]2(C)[C@@H](C=O)C(C=O)=CC[C@@H]12		36.5 µM		> 100 µM		> 100 µM		40.8 µM		33.2 µM		34.6 µM	53.3 µM		> 100 µM		29 µM		31.5 µM	
O=[N+]([O-])c1cc(S(=O)(=O)Oc2ccccc2)ccc1Cl	3.85 µM	14.4 µM	2.7 µM	6.73 µM	1.64 µM	3.09 µM	8.27 µM	45.3 µM	2.29 µM	5.17 µM	5.57 µM	17.7 µM	10.4 µM	2.67 µM	6.4 µM	4.06 µM	15 µM	1.6 µM	3.1 µM	3.52 µM
CC(C)(C)CN1CCn2c(nc3c(N)nccc32)S1	4.02 µM	16.3 µM	33.6 µM	> 100 µM	6.67 µM	86.1 µM	17.1 µM	> 100 µM	12.9 µM	42 µM	15.7 µM	64.5 µM	78.9 µM	13.5 µM	29.7 µM	14.5 µM	31.1 µM	19.7 µM	79.1 µM	18.2 µM
COc1cc(/C=C/[N+](=O)[O-])cc(Br)c1OC	2.17 µM	4.58 µM	2.9 µM	15.9 µM	2.33 µM	6.15 µM	3.62 µM	19.5 µM	14.3 µM	30.8 µM	1.61 µM	3.01 µM	6.62 µM	2.39 µM	6.14 µM	2.13 µM	4.93 µM	2.88 µM	10.4 µM	2.49 µM
C[C@@H]1O[C@@H](OC[C@H]2O[C@@H](OCCc3ccc(O)c(O)c3)[C@H](O)[C@@H](O)[C@@H]2OC(=O)/C=C/c2ccc(O)c(O)c2)[C@H](O)[C@H](O)[C@H]1O	> 100 µM	> 100 µM	> 100 µM	> 100 µM	> 100 µM	> 100 µM	74.3 µM	> 100 µM	> 100 µM	> 100 µM	> 100 µM	> 100 µM	> 100 µM	> 100 µM	> 100 µM	> 100 µM	> 100 µM	> 100 µM	> 100 µM	> 100 µM
CCN1C(=O)N(CC)C2C1NN=c1s/c(=C3\C(=O)N(CCc4ccccc4)c4ccccc43)c(=O)n12 (stereo not drawn)	0.322 µM	1.8 µM	0.449 µM	6.37 µM	0.245 µM	0.684 µM	0.378 µM	6.48 µM	0.927 µM		0.262 µM	1.01 µM	0.643 µM	1.2 µM	> 28.4 µM	0.305 µM	1.23 µM	3.77 µM	> 100 µM	0.228 µM
O=C(O)COc1c(Cl)cc(Cl)c2cccnc12		> 100 µM		> 100 µM		> 100 µM		> 100 µM		> 100 µM		> 100 µM	> 100 µM		> 100 µM		> 100 µM		> 100 µM	
